Laboratory results published in PubChem BioAssay AID1259407 (Chemical Carcinogenesis Research Information System (CCRIS), 2018).
Calls of active or inactive are those of the source. The rule behind the calls is not given here.

System: CCRIS mutagenicity, Ames/micronucleus/aberration tests
Experiment: CCRIS mutagenicity studies

`CCOC(N)=O` was tested, and the mutagenic call (End Point: IN VITRO MICRONUCLEUS, Test System: CHL/IU CELLS, Metabolic Activation: RAT, LIVER, S-9, PHENOBARBITAL AND 5,6-BENZOFLAVONE) was “inactive; negative”, the mutagenic call (End Point: IN VITRO MICRONUCLEUS, Test System: V79 CELLS, Metabolic Activation: NONE) was “inactive; negative” and the mutagenic call (End Point: IN VIVO MICRONUCLEUS, Test System: BLOOD PERIPHERAL POLYCHROMATIC AND NORMOCHROMATIC ERYTHROCYTES, Species: MICE, Strain/Sex: CYP2E1+/+ WILD TYPE/MALE, Route: ORAL (GAVAGE)) was “active; positive for both types of cells”. For the same molecule, the mutagenic call (End Point: IN VIVO MICRONUCLEUS, Test System: BLOOD PERIPHERAL POLYCHROMATIC AND NORMOCHROMATIC ERYTHROCYTES, Species: MOUSE, Strain/Sex: CYP2E1-/- KO (KNOCKOUT)/MALE, Route: ORAL (GAVAGE)) was “inactive; negative for nce; equivocal for pce”, the mutagenic call (End Point: IN VIVO MICRONUCLEUS, Test System: ERYTHROCYTES, Species: MOUSE, Strain/Sex: WILD-TYPE (CYP2E1+/+, WT)/MALE, Route: GAVAGE) was “active; positive; significant dose-dependent increase in both polychromatic and normochr” and the mutagenic call (End Point: IN VIVO MICRONUCLEUS, Test System: PERIPHERAL BLOOD ERYTHROCYTES, Species: MOUSE, Strain/Sex: KNOCK OUT (CYP2E1-/-, KO)/MALE, Route: GAVAGE) was “inactive; negative (normochromatic erythrocytes); authors described results in polychromat”. For the same molecule, the mutagenic call (Test System: AMES SALMONELLA TYPHIMURIUM, Strain/Indicator: TA97, Metabolic Activation: HAMSTER, LIVER, S-9, AROCLOR 1254 (30%), Method: PREINCUBATION) was “inactive; negative”, the mutagenic call (Test System: AMES SALMONELLA TYPHIMURIUM, Strain/Indicator: TA97, Metabolic Activation: NONE, Method: PREINCUBATION) was “inactive; negative” and the mutagenic call (Test System: AMES SALMONELLA TYPHIMURIUM, Strain/Indicator: TA97, Metabolic Activation: RAT, LIVER, S-9, AROCLOR 1254 (30%), Method: PREINCUBATION) was “inactive; negative”. For the same molecule, the mutagenic call (Test System: AMES SALMONELLA TYPHIMURIUM, Strain/Indicator: TA98, Metabolic Activation: HAMSTER, LIVER, S-9, AROCLOR 1254 (30%), Method: PREINCUBATION) was “inactive; negative”, the mutagenic call (Test System: AMES SALMONELLA TYPHIMURIUM, Strain/Indicator: TA98, Metabolic Activation: NONE, Method: PREINCUBATION) was “inactive; negative” and the mutagenic call (Test System: AMES SALMONELLA TYPHIMURIUM, Strain/Indicator: TA98, Metabolic Activation: RAT LIVER S-9, AROCLOR 1254, Method: PREINCUBATION) was “inactive; negative”. The mutagenic call (Test System: AMES SALMONELLA TYPHIMURIUM, Strain/Indicator: TA98, Metabolic Activation: RAT, LIVER, S-9, AROCLOR 1254 (30%), Method: PREINCUBATION) was “inactive; negative”, the mutagenic call (Test System: AMES SALMONELLA TYPHIMURIUM, Strain/Indicator: TA98, Metabolic Activation: RAT, LIVER, S-9, ETHANOL, Method: PREINCUBATION) was “inactive; negative” and the mutagenic call (Test System: AMES SALMONELLA TYPHIMURIUM, Strain/Indicator: TA98, Metabolic Activation: RAT, LIVER, S-9, PYRAZOLE, Method: PREINCUBATION) was “inactive; negative”. For the same molecule, the mutagenic call (Test System: AMES SALMONELLA TYPHIMURIUM, Strain/Indicator: TA98, Metabolic Activation: RAT, LIVER, S-9, Method: STANDARD PLATE) was “inactive; negative”, the mutagenic call (Test System: AMES SALMONELLA TYPHIMURIUM, Strain/Indicator: TA100, Metabolic Activation: HAMSTER, LIVER, S-9, AROCLOR 1254 (5, 10 OR 30%), Method: PREINCUBATION) was “inactive; negative” and the mutagenic call (Test System: AMES SALMONELLA TYPHIMURIUM, Strain/Indicator: TA100, Metabolic Activation: NONE, Method: PREINCUBATION) was “inactive; negative”. The mutagenic call (Test System: AMES SALMONELLA TYPHIMURIUM, Strain/Indicator: TA100, Metabolic Activation: RAT LIVER S-9, AROCLOR 1254, Method: PREINCUBATION) was “inactive; negative”, the mutagenic call (Test System: AMES SALMONELLA TYPHIMURIUM, Strain/Indicator: TA100, Metabolic Activation: RAT, LIVER, S-9, AROCLOR 1254 (5, 10 OR 30%), Method: PREINCUBATION) was “inactive; negative” and the mutagenic call (Test System: AMES SALMONELLA TYPHIMURIUM, Strain/Indicator: TA100, Metabolic Activation: RAT, LIVER, S-9, ETHANOL, Method: PREINCUBATION) was “inactive; negative”. For the same molecule, the mutagenic call (Test System: AMES SALMONELLA TYPHIMURIUM, Strain/Indicator: TA100, Metabolic Activation: RAT, LIVER, S-9, PYRAZOLE, Method: PREINCUBATION) was “inactive; negative”, the mutagenic call (Test System: AMES SALMONELLA TYPHIMURIUM, Strain/Indicator: TA100, Metabolic Activation: RAT, LIVER, S-9, Method: STANDARD PLATE) was “inactive; negative” and the mutagenic call (Test System: AMES SALMONELLA TYPHIMURIUM, Strain/Indicator: TA102, Metabolic Activation: NONE, Method: PREINCUBATION) was “inactive; negative”. The mutagenic call (Test System: AMES SALMONELLA TYPHIMURIUM, Strain/Indicator: TA102, Metabolic Activation: RAT LIVER S-9, AROCLOR 1254, Method: PREINCUBATION) was “inactive; negative”, the mutagenic call (Test System: AMES SALMONELLA TYPHIMURIUM, Strain/Indicator: TA102, Metabolic Activation: RAT LIVER S-9, PHENOBARBITAL AND 5,6-BENZOFLAVONE, Method: STANDARD PLATE) was “inactive; negative” and the mutagenic call (Test System: AMES SALMONELLA TYPHIMURIUM, Strain/Indicator: TA102, Metabolic Activation: RAT, LIVER, S-9, ETHANOL, Method: PREINCUBATION) was “inactive; negative”. The mutagenic call (Test System: AMES SALMONELLA TYPHIMURIUM, Strain/Indicator: TA102, Metabolic Activation: RAT, LIVER, S-9, PYRAZOLE, Method: PREINCUBATION) was “inactive; negative”, the mutagenic call (Test System: AMES SALMONELLA TYPHIMURIUM, Strain/Indicator: TA1535, Metabolic Activation: HAMSTER, LIVER, S-9, AROCLOR 1254 (30%), Method: PREINCUBATION) was “active; positive” and the mutagenic call (Test System: AMES SALMONELLA TYPHIMURIUM, Strain/Indicator: TA1535, Metabolic Activation: NONE, Method: PREINCUBATION) was “inactive; negative”. For the same molecule, the mutagenic call (Test System: AMES SALMONELLA TYPHIMURIUM, Strain/Indicator: TA1535, Metabolic Activation: RAT, LIVER, S-9, AROCLOR 1254 (5 OR 10%), Method: PREINCUBATION) was “inactive; negative”, the mutagenic call (Test System: AMES SALMONELLA TYPHIMURIUM, Strain/Indicator: TA1535, Metabolic Activation: RAT, LIVER, S-9, AROCLOR 1254 (30%), Method: PREINCUBATION) was “inactive; negative” and the mutagenic call (Test System: AMES SALMONELLA TYPHIMURIUM, Strain/Indicator: TA1535, Metabolic Activation: RAT, LIVER, S-9, ETHANOL, Method: PREINCUBATION) was “inactive; negative”. The mutagenic call (Test System: AMES SALMONELLA TYPHIMURIUM, Strain/Indicator: TA1535, Metabolic Activation: RAT, LIVER, S-9, PYRAZOLE, Method: PREINCUBATION) was “inactive; negative”, the mutagenic call (Test System: AMES SALMONELLA TYPHIMURIUM, Strain/Indicator: TA1537, Metabolic Activation: HAMSTER, LIVER, S-9, AROCLOR 1254 (30%), Method: PREINCUBATION) was “inactive; negative” and the mutagenic call (Test System: AMES SALMONELLA TYPHIMURIUM, Strain/Indicator: TA1537, Metabolic Activation: NONE, Method: PREINCUBATION) was “inactive; negative”. The mutagenic call (Test System: AMES SALMONELLA TYPHIMURIUM, Strain/Indicator: TA1537, Metabolic Activation: RAT, LIVER, S-9, AROCLOR 1254 (30%), Method: PREINCUBATION) was “inactive; negative”, the mutagenic call (Test System: AMES SALMONELLA TYPHIMURIUM, Strain/Indicator: TA1537, Metabolic Activation: RAT, LIVER, S-9, PYRAZOLE, Method: PREINCUBATION) was “inactive; negative” and the mutagenic call (Test System: AMES SALMONELLA TYPHIMURIUM, Strain/Indicator: TA2638, Metabolic Activation: RAT LIVER S-9, PHENOBARBITAL AND 5,6-BENZOFLAVONE, Method: STANDARD PLATE) was “inactive; negative”. The mutagenic call (Test System: Ames Salmonella typhimurium, Strain/Indicator: YG7108pin3ERb5, Metabolic Activation: None, Method: Standard plate) was “inactive; negative”, the mutagenic call (Test System: E. COLI, Strain/Indicator: WP2 (PKM101), Metabolic Activation: RAT LIVER S-9, PHENOBARBITAL AND 5,6-BENZOFLAVONE, Method: STANDARD PLATE) was “inactive; negative” and the mutagenic call (Test System: E. COLI, Strain/Indicator: WP2 UVRA (PKM101), Metabolic Activation: RAT LIVER S-9, PHENOBARBITAL AND 5,6-BENZOFLAVONE, Method: STANDARD PLATE) was “inactive; negative”. The mutagenic call (Test System: E. COLI, Strain/Indicator: WP2 UVRA, Metabolic Activation: NONE, Method: FLUCTUATION TEST) was “inactive; negative”, the mutagenic call (Test System: MOUSE LYMPHOMA, Strain/Indicator: L5178Y (TK+/TK-), Metabolic Activation: NONE, Method: MICROWELL) was “inactive; negative” and the mutagenic call (Test System: MOUSE LYMPHOMA, Strain/Indicator: L5178Y (TK+/TK-), Metabolic Activation: S-9, Method: MICROWELL) was “inactive; negative”. The mutagenic call (Test System: UDS MOUSE SPERMATIDS, Strain/Indicator: THY INCORP, Metabolic Activation: NONE) was “active; positive”.
